Here are results for 28 molecules from patent US7399775B2, “β-amyloid protein production/secretion inhibitor” (Daiichi Pharmaceutical Co., Ltd., priority 2001, dated 2008).

Broadly, the melting point is the temperature of the solid-liquid transition.

Take `O=S(=O)(c1ccc(Cl)cc1)C(Cc1cccs1)c1cc(F)ccc1F` (stereo not shown) [Example 295, 2-[2-[(4-Chlorophenyl)sulfonyl]-2-(2,5-difluorophenyl)ethyl]thiophene]: the melting point is 127 to 130 °C. `CS(=O)(=O)CCCCC(c1ccc(F)cc1)S(=O)(=O)c1ccc(Cl)cc1` (stereo not shown) [Example 55, 1-[1-[(4-Chlorophenyl)sulfonyl]-5-(methylsulfonyl)pentyl]-4-fluorobenzene] came in with a melting point of 141 to 142.5 °C. To `O=S1(=O)CCC(c2cc(F)ccc2F)(S(=O)(=O)c2ccc(Cl)cc2)CC1` [Example 253, 4-[(4-Chlorophenyl)sulfonyl]-4-(2,5-difluorophenyl)tetrahydrothiopyran-1,1-dioxide] belongs 204 to 206 °C; to `O=S(=O)(c1ccc(Cl)cc1)C(CCO)c1cc(F)ccc1F` (stereo not shown) [Example 207, 3-[(4-Chlorophenyl)sulfonyl]-3-(2,5-difluorophenyl)-1-propanol], 147 to 149 °C.

With `CS(=O)(=O)CCCCC(C1CCCCC1)S(=O)(=O)c1ccc(Cl)cc1` (stereo not shown) [Example 95, 1-Chloro-4-[1-cyclohexyl-5-(methylsulfonyl)pentylsulfonyl]benzene], the melting point was in the range of 104 to 106 °C. Take `O=S(=O)(/C(=C/c1ccccc1)c1cc(F)ccc1F)c1ccc(Cl)cc1` [Example 6, E-2-[1-[(4-Chlorophenyl)sulfonyl]-2-phenylethenyl]-1,4-difluorobenzene]: the melting point was in the range of 144.5 to 145 °C. The molecule `CN(C)C(=O)N1CCC(c2cc(F)ccc2F)(S(=O)(=O)c2ccc(Cl)cc2)CC1` [Example 268, N,N-dimethyl-4-[(4-chlorophenyl)sulfonyl]-4-(2,5-difluorophenyl)-1-piperidinecarboxamide] displayed a melting point of 143 to 146 °C. As for `CS(=O)(=O)CCCCC(c1ccncc1)S(=O)(=O)c1ccc(Cl)cc1` (stereo not shown) [Example 74, 4-[1-[(4-Chlorophenyl)sulfonyl]-5-(methylsulfonyl)pentyl]pyridine], the melting point lay in the range of 181 to 182 °C.

`COc1cccc(C(CCCCS(C)(=O)=O)S(=O)(=O)c2ccc(Cl)cc2)c1` (stereo not shown) [Example 83, 1-[1-(4-Chlorophenylsulfonyl)-5-(methylsulfonyl)pentyl]-3-methoxybenzene] registered a melting point of 91 to 93 °C. Molecule `O=C(c1ccncc1)N1CCC(c2cc(F)ccc2F)(S(=O)(=O)c2ccc(Cl)cc2)CC1` [Example 264, [4-[(4-Chlorophenyl)sulfonyl]-4-(2,5-difluorophenyl)piperidino](4-pyridyl)methanone] returned a melting point of 245 to 248 °C. As for `O=S(=O)(c1ccc(Cl)cc1)C1(c2cc(F)ccc2F)CC[S+]([O-])CC1` (stereo not shown) [Example 252, 4-[(4-Chlorophenyl)sulfonyl]-4-(2,5-difluorophenyl)tetrahydrothiopyran-1-on], the melting point lay in the range of 173 to 182 °C.

Consider `O=S(=O)(c1ccc(Cl)cc1)C1(c2cc(F)ccc2F)Cc2ccccc2C1` [Example 278, 2-[(4-Chlorophenyl)sulfonyl]-2-(2,5-difluorophenyl)indane], for which the melting point was 209 to 210 °C (dec.). As to `CC(CCO)C(c1cc(F)ccc1F)S(=O)(=O)c1ccc(Cl)cc1` (single isomer, unassigned) [Example 239, 4-(4-Chlorophenylsulfonyl)-4-(2,5-difluorophenyl)-3-methyl-1-butanol], the melting point was 65 to 67 °C. The same measure for `COC(=O)CCc1ccc(C(c2cc(F)ccc2F)S(=O)(=O)c2ccc(Cl)cc2)nc1` (stereo not shown) [Example 333, Methyl 3-[6-[(4-chlorophenylsulfonyl)-(2,5-difluorophenyl)methyl]pyridin-3-yl]propionate]: 121 to 123 °C. Molecule `NC(=O)OCCC(c1cc(F)ccc1F)S(=O)(=O)c1ccc(Cl)cc1` (stereo not shown) [Example 214, 3-[(4-Chlorophenyl)sulfonyl]-3-(2,5-difluorophenyl)propyl=carbamate] yielded a melting point of 139 to 140 °C.

Molecule `CCNC(=O)N1CCC(c2cc(F)ccc2F)(S(=O)(=O)c2ccc(Cl)cc2)CC1` [Example 272, N-ethyl-4-[(4-chlorophenyl)sulfonyl]-4-(2,5-difluorophenyl)-1-piperidinecarboxamide] came in with a melting point of 172 to 174 °C. To `CN1CCC(C(c2ccncc2)S(=O)(=O)c2ccc(Cl)cc2)CC1` (stereo not shown) [Example 124, 4-[(4-Chlorophenylsulfonyl)(1-methylpiperidin-4-yl)methyl]pyridine] belongs 176 to 177 °C; to `Cc1ccc(S(=O)(=O)NCC(=O)NCc2ccc(C(c3cc(F)ccc3F)S(=O)(=O)c3ccc(Cl)cc3)nc2)cc1` (stereo not shown) [Example 358, N-[[6-[(4-Chlorophenylsulfonyl)(2,5-difluorophenyl)methyl]pyridin-3-yl]methyl]-2-(4-methylphenylsulfonylamino)acetamide], 217 to 218 °C; to `O=S(=O)(c1ccc(Cl)cc1)C(c1ccc(CN2CCCCC2)cn1)c1cc(F)ccc1F` (stereo not shown) [Example 336, 2-[(4-Chlorophenylsulfonyl)-(2,5-difluorophenyl)methyl]-5-(piperidin-1-ylmethyl)pyridine], 113 to 114 °C.

For `Cc1ncsc1CCC(c1cc(F)ccc1F)S(=O)(=O)c1ccc(Cl)cc1` (stereo not shown) [Example 319, 5-[3-(4-Chlorophenylsulfonyl)-3-(2,5-difluorophenyl)propyl]-4-methyl-1,3-thiazole], the melting point was in the range of 183 to 184 °C. `C[S+]([O-])CCCCC(c1ccccc1)S(=O)(=O)c1ccc(Cl)cc1` (stereo not shown) [Example 52, 1-Chloro-4-(5-methylsulfinyl-1-phenylpentyl)sulfonylbenzene] returned a melting point of 98.5 to 99.5 °C.

For `Cc1ccc(CCC(c2cc(F)ccc2F)S(=O)(=O)c2ccc(Cl)cc2)cc1` (stereo not shown) [Example 307, 2-[1-(4-Chlorophenylsulfonyl)-3-(4-methylphenyl)propyl]-1,4-difluorobenzene], the melting point is 82 to 84 °C. As to `CCOC(=O)CC(c1cc(F)ccc1F)S(=O)(=O)c1ccc(Cl)cc1` (stereo not shown) [Example 25, Ethyl 3-[(4-chlorophenyl)sulfonyl]-3-(2,5-difluorophenyl)propionate], the melting point lay in the range of 99.5 to 100.5 °C. Molecule `O=C(c1cccnc1)N1CCC(c2cc(F)ccc2F)(S(=O)(=O)c2ccc(Cl)cc2)CC1` [Example 265, [4-[(4-Chlorophenyl)sulfonyl]-4-(2,5-difluorophenyl)piperidino](3-pyridyl)methanone] returned a melting point of 119 to 124 °C. On to `O=S(=O)(c1ccc(Cl)cc1)C(CCCC1CCCCC1)c1cc(F)ccc1F` (stereo not shown) [Example 317, 2-[1-(4-Chlorophenylsulfonyl)-4-cyclohexylbutyl]-1,4-difluorobenzene], for which the melting point fell in the range of 47 to 49 °C. The molecule `O=S(=O)(c1ccc(Cl)cc1)C(Cc1ccncc1)c1cc(F)ccc1F` (stereo not shown) [Example 220, 4-[2-[(4-Chlorophenyl)sulfonyl]-2-(2,5-difluorophenyl)ethyl]pyridine] returned a melting point of 129 °C.

Molecule `CCCCCCC(c1cc(F)ccc1F)S(=O)(=O)c1ccc(Cl)cc1` (stereo not shown) [Example 323, 2-[1-(4-Chlorophenylsulfonyl)heptyl]-1,4-difluorobenzene] displayed a melting point of 77 to 78 °C. To `O=S(=O)(c1ccc(Cl)cc1)C(C/C=C/CO)c1cc(F)ccc1F` (stereo not shown) [Example 248, (E)-5-[(4-Chlorophenyl)sulfonyl]-5-(2,5-difluorophenyl)-2-penten-1-ol] belongs 108 to 109 °C.
